In assay [1] the test system is maternal HIV+ sera (antibodies). In words: RIA / ELISA binding of maternal HIV+ sera to gp120 and gp41 peptides (Example 3). Set-up: species or system human. In a few lines: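 Maternal sera, diluted 1:50 and 1:500, were bound overnight at 4°C to peptides immobilized at 10 μg/ml (pH 9.6 carbonate) and blocked with 1% BSA. Read-out was ¹²⁵I-labelled anti-human IgG counts or HRP-TMB OD450. Signal with peptide minus without was expressed relative to seronegative serum.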

For assay [2], the system named is maternal sera (antibodies). In words: ELISA peptide-binding of maternal sera (Example 6). Set-up: species or system human. Particulars: for Number of Non-Transmitters which bound to peptide / Percent of Non-Transmitters which bound to peptide: N = 12; for Number of Transmitters which bound to peptide / Percent of Transmitters which bound to peptide: N = 4. In a few lines: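 HIV-1 envelope peptides averaging 16 amino acids, covering external and transmembrane glycoprotein, were probed by ELISA. Third-trimester maternal sera, classed as transmitter or non-transmitter by child diagnosis, were each run on at least 40 peptides. Values give percent of sera binding a peptide.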

The mark [3] stands for this setting: Serum No. 1, Non-Transmission Group.
Where [4] appears, read: Serum No. 2, Non-Transmission Group.
Setting [5] is: Serum No. 3, Non-Transmission Group.
[6] abbreviates: Serum No. 4, Transmission Group.
Setting [7] is: Serum No. 5, Transmission Group.
[8] abbreviates: Serum No. 6, Non-Transmission Group.
Where [9] appears, read: Serum No. 7, Non-Transmission Group.
Setting [10] is: Serum No. 8, Non-Transmission Group.
Setting [11] is: Serum No. 9, Non-Transmission Group.
Where [12] appears, read: Serum No. 10, Transmission Group.
The mark [13] stands for this setting: Serum No. 11, Non-Transmission Group.
The mark [14] stands for this setting: Serum No. 12, Non-Transmission Group.
The mark [15] stands for this setting: Serum No. 13, Transmission Group.
[16] abbreviates: Serum No. 14, Transmission Group.
The mark [17] stands for this setting: Serum No. 15, Transmission Group.
The mark [18] stands for this setting: Serum No. 16, Non-Transmission Group.
The mark [19] stands for this setting: Serum No. 17, Non-Transmission Group.
The mark [20] stands for this setting: Serum No. 18, Non-Transmission Group.
Where [21] appears, read: Serum No. 19, Transmission Group.
Setting [22] is: Serum No. 20, Non-Transmission Group.

Consider FSYHRLRDLLLIVTR [Peptide 132], for which the “Binding of maternal HIV+ serum to peptide (sera/NHS ratio)” value (“Binding … (sera/NHS ratio)” for short) in assay [1] (setting [3]) is “+ (which value is between 2 to 3)”; in assay [1] (setting [4]), “- (specific OD450 or cpm of sera sample binding to peptide divided by the specific OD450 or cpm of NHS sample binding to peptide, which value is less than 2)”; in assay [1] (setting [5]), “- (specific OD450 or cpm of sera sample binding to peptide divided by the specific OD450 or cpm of NHS sample binding to peptide, which value is less than 2)”; in assay [1] (setting [6]) it was “- (specific OD450 or cpm of sera sample binding to peptide divided by the specific OD450 or cpm of NHS sample binding to peptide, which value is less than 2)”; in assay [1] (setting [7]), “- (specific OD450 or cpm of sera sample binding to peptide divided by the specific OD450 or cpm of NHS sample binding to peptide, which value is less than 2)”; in assay [1] (setting [8]), “- (specific OD450 or cpm of sera sample binding to peptide divided by the specific OD450 or cpm of NHS sample binding to peptide, which value is less than 2)”. Besides, the “Binding … (sera/NHS ratio)” value is recorded as “- (specific OD450 or cpm of sera sample binding to peptide divided by the specific OD450 or cpm of NHS sample binding to peptide, which value is less than 2)” in assay [1] (setting [9]); “- (specific OD450 or cpm of sera sample binding to peptide divided by the specific OD450 or cpm of NHS sample binding to peptide, which value is less than 2)” in assay [1] (setting [10]); “+ (which value is between 2 to 3)” in assay [1] (setting [11]); “- (specific OD450 or cpm of sera sample binding to peptide divided by the specific OD450 or cpm of NHS sample binding to peptide, which value is less than 2)” in assay [1] (setting [12]); “- (specific OD450 or cpm of sera sample binding to peptide divided by the specific OD450 or cpm of NHS sample binding to peptide, which value is less than 2)” in assay [1] (setting [13]); “- (specific OD450 or cpm of sera sample binding to peptide divided by the specific OD450 or cpm of NHS sample binding to peptide, which value is less than 2)” in assay [1] (setting [14]). Further, the “Binding … (sera/NHS ratio)” value in assay [1] (setting [15]) was “- (specific OD450 or cpm of sera sample binding to peptide divided by the specific OD450 or cpm of NHS sample binding to peptide, which value is less than 2)”; in assay [1] (setting [16]), “- (specific OD450 or cpm of sera sample binding to peptide divided by the specific OD450 or cpm of NHS sample binding to peptide, which value is less than 2)”; in assay [1] (setting [17]), “- (specific OD450 or cpm of sera sample binding to peptide divided by the specific OD450 or cpm of NHS sample binding to peptide, which value is less than 2)”; in assay [1] (setting [18]) it was “- (specific OD450 or cpm of sera sample binding to peptide divided by the specific OD450 or cpm of NHS sample binding to peptide, which value is less than 2)”; in assay [1] (setting [19]), “- (specific OD450 or cpm of sera sample binding to peptide divided by the specific OD450 or cpm of NHS sample binding to peptide, which value is less than 2)”; in assay [1] (setting [20]) it was “- (specific OD450 or cpm of sera sample binding to peptide divided by the specific OD450 or cpm of NHS sample binding to peptide, which value is less than 2)”. Further, the “Binding … (sera/NHS ratio)” value in assay [1] (setting [21]) was “- (specific OD450 or cpm of sera sample binding to peptide divided by the specific OD450 or cpm of NHS sample binding to peptide, which value is less than 2)”; in assay [1] (setting [22]), “- (specific OD450 or cpm of sera sample binding to peptide divided by the specific OD450 or cpm of NHS sample binding to peptide, which value is less than 2)”. Also, the “Number of Non-Transmitters which bound to peptide” value in assay [2] is recorded as 1. Besides, the “Percent of Non-Transmitters which bound to peptide” value in assay [2] worked out at 83%. In addition, the “Number of Transmitters which bound to peptide” value in assay [2] is 0. Also, in assay [2], the “Percent of Transmitters which bound to peptide” value was found to be 0%.

With QNNLLRAIEAQQHLLQLTVWGI [Peptide 35], the “Binding … (sera/NHS ratio)” value in assay [1] (setting [3]) was “- (specific OD450 or cpm of sera sample binding to peptide divided by the specific OD450 or cpm of NHS sample binding to peptide, which value is less than 2)”; in assay [1] (setting [4]) it was “- (specific OD450 or cpm of sera sample binding to peptide divided by the specific OD450 or cpm of NHS sample binding to peptide, which value is less than 2)”; in assay [1] (setting [5]), “+ (which value is between 2 to 3)”; in assay [1] (setting [6]) it was “- (specific OD450 or cpm of sera sample binding to peptide divided by the specific OD450 or cpm of NHS sample binding to peptide, which value is less than 2)”; in assay [1] (setting [7]), “- (specific OD450 or cpm of sera sample binding to peptide divided by the specific OD450 or cpm of NHS sample binding to peptide, which value is less than 2)”; in assay [1] (setting [8]), “- (specific OD450 or cpm of sera sample binding to peptide divided by the specific OD450 or cpm of NHS sample binding to peptide, which value is less than 2)”. Also, the “Binding … (sera/NHS ratio)” value in assay [1] (setting [9]) is “+ (which value is between 2 to 3)”; in assay [1] (setting [10]), “- (specific OD450 or cpm of sera sample binding to peptide divided by the specific OD450 or cpm of NHS sample binding to peptide, which value is less than 2)”; in assay [1] (setting [11]), “- (specific OD450 or cpm of sera sample binding to peptide divided by the specific OD450 or cpm of NHS sample binding to peptide, which value is less than 2)”; in assay [1] (setting [12]) it was “- (specific OD450 or cpm of sera sample binding to peptide divided by the specific OD450 or cpm of NHS sample binding to peptide, which value is less than 2)”; in assay [1] (setting [13]), “- (specific OD450 or cpm of sera sample binding to peptide divided by the specific OD450 or cpm of NHS sample binding to peptide, which value is less than 2)”; in assay [1] (setting [14]), “- (specific OD450 or cpm of sera sample binding to peptide divided by the specific OD450 or cpm of NHS sample binding to peptide, which value is less than 2)”. The “Binding … (sera/NHS ratio)” value is “- (specific OD450 or cpm of sera sample binding to peptide divided by the specific OD450 or cpm of NHS sample binding to peptide, which value is less than 2)” in assay [1] (setting [15]); “- (specific OD450 or cpm of sera sample binding to peptide divided by the specific OD450 or cpm of NHS sample binding to peptide, which value is less than 2)” in assay [1] (setting [16]); “- (specific OD450 or cpm of sera sample binding to peptide divided by the specific OD450 or cpm of NHS sample binding to peptide, which value is less than 2)” in assay [1] (setting [17]); “- (specific OD450 or cpm of sera sample binding to peptide divided by the specific OD450 or cpm of NHS sample binding to peptide, which value is less than 2)” in assay [1] (setting [18]); “- (specific OD450 or cpm of sera sample binding to peptide divided by the specific OD450 or cpm of NHS sample binding to peptide, which value is less than 2)” in assay [1] (setting [19]); “- (specific OD450 or cpm of sera sample binding to peptide divided by the specific OD450 or cpm of NHS sample binding to peptide, which value is less than 2)” in assay [1] (setting [20]). For the same sequence, the “Binding … (sera/NHS ratio)” value is “- (specific OD450 or cpm of sera sample binding to peptide divided by the specific OD450 or cpm of NHS sample binding to peptide, which value is less than 2)” in assay [1] (setting [21]) and “- (specific OD450 or cpm of sera sample binding to peptide divided by the specific OD450 or cpm of NHS sample binding to peptide, which value is less than 2)” in assay [1] (setting [22]). In addition, the “Number of Non-Transmitters which bound to peptide” value in assay [2] is reported as 0. For the same sequence, the “Percent of Non-Transmitters which bound to peptide” value in assay [2] is 0%. Moreover, the “Number of Transmitters which bound to peptide” value in assay [2] was determined as 0. Also, the “Percent of Transmitters which bound to peptide” value in assay [2] worked out at 0%.

For the origin of these results see patent US5556744A, “Methods and compositions for diagnosing and treating certain HIV infected patients” (The Trustees of the University of Pennsylvania, priority 1994, dated 1996).
